Experimental findings from US20050009894A1 (Aventis Pharma S.A., priority 2001, published 2005) are described below.

Structures are written as SMILES.

In one assay the target is T1, human KDR enzyme (Homo sapiens, UniProt P35968).
T1 construct: The cytoplasmic domain of human KDR enzyme is cloned in the form of a GST fusion; GST; made in house; host or cells: SF21 insect cells (baculovirus, pFastBac)
T1 sequence (P35968 786-1356 limits assumed): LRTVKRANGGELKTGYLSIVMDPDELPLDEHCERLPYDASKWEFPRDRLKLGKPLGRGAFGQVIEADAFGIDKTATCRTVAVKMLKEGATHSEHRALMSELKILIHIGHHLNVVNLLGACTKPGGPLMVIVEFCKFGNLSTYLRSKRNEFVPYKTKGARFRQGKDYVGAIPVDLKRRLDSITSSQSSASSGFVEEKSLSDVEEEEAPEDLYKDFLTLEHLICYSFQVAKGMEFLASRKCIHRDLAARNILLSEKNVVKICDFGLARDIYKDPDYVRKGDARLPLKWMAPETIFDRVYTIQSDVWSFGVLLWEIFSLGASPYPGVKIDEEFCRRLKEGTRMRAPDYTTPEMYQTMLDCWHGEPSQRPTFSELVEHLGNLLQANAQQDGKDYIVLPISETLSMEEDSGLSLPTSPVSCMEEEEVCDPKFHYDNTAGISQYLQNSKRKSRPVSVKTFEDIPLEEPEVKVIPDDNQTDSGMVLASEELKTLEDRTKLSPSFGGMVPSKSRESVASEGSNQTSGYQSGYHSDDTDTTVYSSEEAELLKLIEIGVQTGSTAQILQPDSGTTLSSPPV
Nature of the assay: Phosphorylation of the substrate PLCγ by the enzyme KDR in vitro (flashplate technique). It counts as biochemical. The settings on record: Table VII, degrees of activity by IC50 range; read-out: Activity. As to the method: The inhibitory effect of the compounds is determined in a test of phosphorylation of a substrate by the enzyme KDR in vitro by the flasplate technique (96-well plate, NEN). The cytoplasmic domain of human KDR enzyme is cloned in the form of a GST fusion into the baculovirus expression vector pFastBac. The protein is expressed in the SF21 cells and purified to about 60% homogeneity.
The kinase activity of KDR is measured in 20 mM MOPS, 10 mM MgCl2, 10 mM MnCl2, 1 mM DTT, 2.5 mM EGTA, 10 mM β-glycerophosphate, pH 7.2 in the presence of 10 mM MgCl2, 100 μM Na3VO4, 1 mM NaF. 10 μl of the compound are added to 70 μl of kinase buffer containing 100 ng of KDR enzyme at 4° C. The reaction is initiated by adding 20 μl of solution containing 2 μg of substrate (fragment SH2-SH3 of PLCγ expressed in the form of a GST fusion protein), 2 μCi γ33P[ATP] and 2 μM cold ATP. After incubating for 1 h at 37° C., the reaction is quenched by adding 1 volume (100 μl) of 200 mM EDTA. The incubation buffer is removed and the wells are washed three times with 300 μl of PBS. The radioactivity is measured in each well using a Top Count NXT instrument (Packard).
Background noise is determined by measuring the radio-activity in wells in quadruplet containing radioactive ATP and the substrate alone.
An activity control is measured in wells in quadruplet containing all the reagents (γ33P-[ATP], KDR and the substrate PLCγ) and in the absence of compound.
The inhibition of the KDR activity with the compound of the invention is expressed as a percentage of inhibition of the control activity determined in the absence of compound.
The compound SU5614 (Calbiochem) (1 μM) is included in each plate as inhibition control.
The IC50 values for the compounds are calculated by plotting the dose-response curves. The IC50 corresponds to the concentration of compound that induces a 50% inhibition of the kinase activity.
In the case of `OCc1cccc(-c2ccc3nc(-c4[nH]nc5ccccc45)[nH]c3c2)c1` [Example 133, {3-[2-(2H-Indazol-3-yl)-3H-benzoimidazol-5-yl]-phenyl}-methanol], the IC50 lay within 0.3 to 3 µM.
Same read-out and setting: with `Cc1ccc(F)c(CNC(=O)c2ccc3[nH]c(-c4n[nH]c5ccccc45)nc3c2)c1F` [Example 166, 2-(1H-Indazol-3-yl)-1H-benzoimidazole-5-carboxylic acid 2,6-difluoro-3-methyl-benzylamide] the figure was 0.3 to 3 µM; with `CC(C)(C)OC(=O)N1CCN(C(=O)c2ccc3[nH]c(-c4n[nH]c5ccccc45)nc3c2)CC1` [Example 175, 4-[2-(1H-Indazol-3-yl)-1H-benzoimidazole-5-carbonyl]-piperazine-1-carboxylic acid tert-butyl ester], 0.3 to 3 µM; with `O=C(NCc1ccc([N+](=O)[O-])cc1)c1ccc2[nH]c(-c3n[nH]c4ccccc34)nc2c1` [Example 37, 2-(1H-Indazol-3-yl)-1H-benzoimidazole-5-carboxylic acid 4-nitro-benzylamide], less than 0.3 µM.
With `c1ccc(COc2cc(-c3nc4ccccc4[nH]3)[nH]n2)cc1` [Example 181, 2-[5-(benzyloxy)-2H-pyrazol-3-yl]-1H-benzoimidazole], the IC50 lay in the range of 0.3 to 3 µM.
Turning to `CN(Cc1ccccc1)C(=O)c1ccc2[nH]c(-c3n[nH]c4ccccc34)nc2c1` [Example 152, 2-(1H-Indazol-3-yl)-1H-benzoimidazole-5-carboxylic acid benzyl-methyl-amide], the IC50 lay within 0.3 to 3 µM.
On the same count and under the same terms, under `O=C(NCc1ccc(-c2ccc(F)cc2)cc1)c1ccc2[nH]c(-c3n[nH]c4ccccc34)nc2c1` [Example 164] stands more than 3 µM; under `c1ccc(COc2cccc(-c3ccc4nc(-c5[nH]nc6ccccc56)[nH]c4c3)c2)cc1` [Example 143, 3-[6-(3-Benzyloxy-phenyl)-1H-benzoimidazol-2-yl]-2H-indazole], more than 3 µM; under `c1ccc2c(-c3nc4ccc(-c5csc6ccccc56)cc4[nH]3)[nH]nc2c1` [Example 132, 3-(6-Benzo[b]thiophen-3-yl-1H-benzoimidazol-2-yl)-2H-indazole], more than 3 µM.
Regarding `Cc1cc(C)cc(CNC(=O)c2cccc3nc(-c4n[nH]c5ccccc45)[nH]c23)c1` [Example 92, 2-(1H-Indazol-3-yl)-3H-benzoimidazole-4-carboxylic acid 3,5-dimethyl-benzylamide], the IC50 fell in the range of 0.3 to 3 µM.
Same read-out and setting: under `O=C(NCc1cccc2ccccc12)c1cccc2nc(-c3n[nH]c4ccccc34)[nH]c12` [Example 76, 2-(1H-Indazol-3-yl)-3H-benzoimidazole-4-carboxylic acid (naphthalen-1-ylmethyl)-amide] stands more than 3 µM; under `c1ccc(-c2ccc(COc3cc(-c4nc5ccccc5[nH]4)[nH]n3)cc2)cc1` [Example 193, 2-[5-(Biphenyl-4-ylmethoxy)-2H-pyrazol-3-yl]-1H-benzoimidazole], 0.3 to 3 µM.
In the case of `O=C(NCc1ccc(-c2cccs2)s1)c1ccc2[nH]c(-c3n[nH]c4ccccc34)nc2c1` [Example 57, 2-(1H-Indazol-3-yl)-1H-benzoimidazole-5-carboxylic acid ([2,2′]bithiophenyl-5-ylmethyl)-amide], the IC50 is 0.3 to 3 µM.
As for `O=C(NCc1ccc2c(c1)OCO2)c1ccc2[nH]c(-c3n[nH]c4ccccc34)nc2c1` [Example 41, 2-(1H-Indazol-3-yl)-1H-benzoimidazole-5-carboxylic acid (benzo[1,3]dioxole-5-ylmethyl)-amide], the IC50 was 0.3 to 3 µM.
The same measure, in the same setting: under `O=C(COc1cc(-c2nc3ccccc3[nH]2)[nH]n1)C1CC1` [Example 213, 2-[5-(1H-Benzoimidazol-2-yl)-1H-pyrazol-3-yloxy]-1-cyclopropyl-ethanone] stands more than 3 µM; under `CC(C)NC(=O)c1ccc2[nH]c(-c3n[nH]c4ccccc34)nc2c1` [Example 149, 2-(1H-Indazol-3-yl)-1H-benzoimidazole-5-carboxylic acid isopropylamide], 0.3 to 3 µM.
As for `c1ccc(-c2ccc3nc(-c4[nH]nc5ccccc45)[nH]c3c2)cc1` [Example 97, 3-(6-Phenyl-1H-benzimidazol-2-yl)-2H-indazole], the IC50 was more than 3 µM.
With `Cn1cc(CNC(=O)c2ccc3[nH]c(-c4n[nH]c5ccccc45)nc3c2)cn1` [Example 51, 2-(1H-Indazol-3-yl)-1H-benzoimidazole-5-carboxylic acid (1-methyl-1H-pyrazol-4-ylmethyl)-amide], the IC50 fell in the range of 0.3 to 3 µM.
Regarding `O=C(NCc1ccc(Cl)nc1)c1ccc2[nH]c(-c3n[nH]c4ccccc34)nc2c1` [Example 56, 2-(1H-Indazol-3-yl)-1H-benzoimidazole-5-carboxylic acid (6-chloro-pyridin-3-ylmethyl)-amide], the IC50 was less than 0.3 µM.
On to `c1ccc(-c2ccc(-c3ccc4nc(-c5[nH]nc6ccccc56)[nH]c4c3)cc2)cc1` [Example 106, 3-(6-Biphenyl-4-yl-1H-benzoimidazol-2-yl)-2H-indazole], for which the IC50 is more than 3 µM.
The same measure, in the same setting: under `O=C(NCc1ccc(C(F)(F)F)cc1)c1ccc2[nH]c(-c3n[nH]c4ccccc34)nc2c1` [Example 33, 2-(1H-Indazol-3-yl)-1H-benzoimidazole-5-carboxylic acid 4-trifluoromethyl-benzylamide] stands 0.3 to 3 µM; under `O=C(NCc1ccc(F)c(F)c1)c1ccc2[nH]c(-c3n[nH]c4ccccc34)nc2c1` [Example 160, 2-(1H-Indazol-3-yl)-1H-benzoimidazole-5-carboxylic acid 3,4-difluoro-benzylamide], 0.3 to 3 µM.
Same read-out and setting: under `Oc1cccc(-c2ccc3nc(-c4[nH]nc5ccccc45)[nH]c3c2)c1` [Example 121, 3-[2-(2H-Indazol-3-yl)-3H-benzoimidazol-5-yl]-phenol] stands 0.3 to 3 µM; under `O=S(=O)(Oc1cc(-c2nc3ccccc3[nH]2)[nH]n1)c1cccc(Cl)c1Cl` [Example 194, 2,3-Dichloro-benzenesulfonic acid 5-(1H-benzoimidazol-2-yl)-1H-pyrazol-3-yl ester], more than 3 µM; under `O=C(NCc1csc2ccc(Cl)cc12)c1ccc2[nH]c(-c3n[nH]c4ccccc34)nc2c1` [Example 60, 2-(1H-Indazol-3-yl)-1H-benzoimidazole-5-carboxylic acid (5-chloro-benzo[b]thiophen-3-ylmethyl)-amide], more than 3 µM.
For `COc1ccc(-c2ccc3nc(-c4[nH]nc5ccccc45)[nH]c3c2)cc1` [Example 102, 3-[6-(4-Methoxy-phenyl)-1H-benzoimidazol-2-yl]-2H-indazole], the IC50 fell in the range of 0.3 to 3 µM.
Same read-out and setting: under `C(=C\c1ccccc1)/COc1cc(-c2nc3ccccc3[nH]2)[nH]n1` [Example 182, 2-[5-(3-Phenyl-allyloxy)-2H-pyrazol-3-yl]-1H-benzoimidazole] stands 0.3 to 3 µM; under `C=C(C)COc1cc(-c2nc3ccccc3[nH]2)[nH]n1` [Example 183, 2-[5-(2-Methyl-allyloxy)-2H-pyrazol-3-yl]-1H-benzoimidazole], more than 3 µM; under `O=C(NCc1cccs1)c1cccc2nc(-c3n[nH]c4ccccc34)[nH]c12` [Example 77, 2-(1H-Indazol-3-yl)-3H-benzoimidazole-4-carboxylic acid (thiophen-2-ylmethyl)-amide], more than 3 µM.
For `COc1cccc(-c2ccc3nc(-c4[nH]nc5ccccc45)[nH]c3c2)c1` [Example 114, 3-[6-(3-Methoxy-phenyl)-1H-benzoimidazol-2-yl]-2H-indazole], the IC50 lay in the range of 0.3 to 3 µM.

Staying with this assay, now noted: read-out: IC50 (μM) on inhibition of the phosphory-lation of PLCγ by KDR.
Regarding `O=C(NCCc1ccccc1)c1ccc2[nH]c(-c3n[nH]c4ccccc34)nc2c1` [Example 6, 2-(1H-Indazol-3-yl)-1H-benzimidazole-5-carboxylic acid N-phenethylamide], the IC50 came to 0.33 µM.
Still for that read-out and setting: under `O=C(NCC1CCCCC1)c1ccc2[nH]c(-c3n[nH]c4ccccc34)nc2c1` [Example 11, 2-(1H-Indazol-3-yl)-1H-benzimidazole-5-carboxylic acid N-(cyclohexylmethyl)amide] stands 0.26 µM.
Still for that read-out and setting: with `CN(Cc1ccccc1)C(=O)c1ccc2[nH]c(-c3n[nH]c4ccccc34)nc2c1` [Example 13, 2-(1H-Indazol-3-yl)-1H-benzimidazole-5-carboxylic acid N-benzyl-N-methylamide] the figure was 0.61 µM; with `O=C(NCc1ccccc1)c1ccc2nc(-c3n[nH]c4ccccc34)[nH]c2c1` [Example 1, 2-(1H-Indazol-3-yl)-1H-benzimidazole-5-carboxylic acid benzylamide], 0.47 µM; with `CN1CCN(C(=O)c2ccc3[nH]c(-c4n[nH]c5ccccc45)nc3c2)CC1` [Example 8, 2-(1H-Indazol-3-yl)-1H-benzimidazole-5-carboxylic acid N-(N′-methyl-piperazino)amide], 0.67 µM.
